# Where two headings read alike, the source gives them in different places.
# Key:
# Assay type in all cases: cell-based
# [1] = system: MCF-7 cells stably expressing EF1 HA-ER-α wild-type; experiment: MCF-7 Stable Cell Line Viability (EF1 HA-ER-α series); parameters: Percent inhibition compared to vehicle: concentration or dose not given beside the values; settings: EF1 HA-ER-α Wild-type; for Percent inhibition compared to vehicle: 5-Day Incubation; for Efficacy (Emax): Day 5 relative to Day 0; for EC50: Homo sapiens, MCF7, read-out: Potency (EC50; nM)
# Summary of the method: (§1)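 MCF-7 lines stably expressing N-terminal HA-tagged wild-type or mutant ER-α, under a high-expressing EF1 or a low-to-moderate UbC promoter, plus an empty-vector control, grown in phenol-free RPMI with 10% CSS. Compound given at 10 μM to 5 pM final for 5 days. CellTiter-Glo luminescence minus background, divided by the time-zero reading, gave relative proliferation.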
# [2] = system: MCF-7 cells transduced with an empty EF1 lentiviral vector (negative control); experiment: as above; parameters: Percent inhibition compared to vehicle: concentration or dose not given beside the values; settings: for EC50: Homo sapiens, MCF7, Receptor None (empty EF1 lentiviral vector), read-out: Potency (EC50; nM); for Percent inhibition compared to vehicle / Efficacy (Emax): Receptor None (empty EF1 lentiviral vector); for Percent inhibition compared to vehicle: 5-Day Incubation; for Efficacy (Emax): Day 5 relative to Day 0
# Summary of the method: as §1
# [3] = system: MCF-7 cells stably expressing UbC HA-ER-α E380Q; experiment: cells; settings: UbC HA-ER-α E380Q; for EC50: Homo sapiens, MCF7, read-out: Potency (EC50; nM); for Percent inhibition compared to vehicle: 5-Day Incubation; for Efficacy (Emax): Day 5 relative to Day 0
# Summary of the method: as §1
# [4] = system: MCF-7 cells stably expressing UbC HA-ER-α L536R; experiment: cells; settings: UbC HA-ER-α L536R; for EC50: Homo sapiens, MCF7, read-out: Potency (EC50; nM); for Percent inhibition compared to vehicle: 5-Day Incubation; for Efficacy (Emax): Day 5 relative to Day 0
# Summary of the method: as §1
# [5] = system: MCF-7 cells stably expressing EF1 HA-ER-α Y537N; experiment: cells; settings: EF1 HA-ER-α Y537N; for Efficacy (Emax): Day 5 relative to Day 0; for EC50: Homo sapiens, MCF7, read-out: Potency (EC50; nM)
# Summary of the method: as §1
# [6] = system: MCF-7 cells stably expressing EF1 HA-ER-α E380Q; experiment: cells; settings: EF1 HA-ER-α E380Q; for Percent inhibition compared to vehicle: 5-Day Incubation; for Efficacy (Emax): Day 5 relative to Day 0; for EC50: Homo sapiens, MCF7, read-out: Potency (EC50; nM)
# Summary of the method: as §1
# [7] = system: MCF-7 cells stably expressing UbC HA-ER-α wild-type; experiment: MCF-7 Stable Cell Line Viability (UbC HA-ER-α series); settings: UbC HA-ER-α Wild-type; for EC50: Homo sapiens, MCF7, read-out: Potency (EC50; nM); for Percent inhibition compared to vehicle: 5-Day Incubation; for Efficacy (Emax): Day 5 relative to Day 0
# Summary of the method: as §1
# [8] = system: MCF-7 cells (negative control); experiment: as above; settings: Receptor None (MCF-7 negative control); for EC50: Homo sapiens, MCF7, read-out: Potency (EC50; nM)
# Summary of the method: as §1
# [9] = Antagonist Mode, −E2 (Table 27)
# [10] = Antagonist Mode, +E2, 5-Day Incubation
structure (smiles),measurement,setting,value
C[C@]12CC[C@@H]3c4ccc(O)cc4C[C@@H](CCCCCCCCC[S+]([O-])CCCC(F)(F)C(F)(F)F)[C@H]3[C@@H]1CC[C@@H]2O (stereo partly drawn) [Fulvestrant],Percent inhibition compared to vehicle,"[1]; Agonist Mode, −E2",63%
same,Efficacy (Emax),"[1]; Agonist Mode, −E2",2.12 ± 0.23
same,Percent inhibition compared to vehicle,"[1]; Antagonist Mode, +E2",70%
same,Efficacy (Emax),"[1]; Antagonist Mode, +E2",2.04 ± 0.10
same,EC50,"[1]; Agonist Mode, −E2",0.895 ± 0.173 nM
same,EC50,"[1]; Antagonist Mode, +E2",3.97 ± 0.955 nM
same,EC50,[1]; [9],0.895 ± 0.173 nM
same,EC50,"[2]; Agonist Mode, −E2",0.178 ± 0.129 nM
same,EC50,"[2]; Antagonist Mode, +E2",1.44 ± 0.156 nM
same,EC50,[2]; [9],0.178 ± 0.129 nM
same,Percent inhibition compared to vehicle,"[2]; Agonist Mode, −E2",51%
same,Efficacy (Emax),"[2]; Agonist Mode, −E2",1.09 ± 0.16
same,Percent inhibition compared to vehicle,"[2]; Antagonist Mode, +E2",74%
same,Efficacy (Emax),"[2]; Antagonist Mode, +E2",1.04 ± 0.15
same,EC50,"[3]; Agonist Mode, −E2",0.248 ± 0.094 nM
same,EC50,"[3]; Antagonist Mode, +E2",1.14 ± 0.028 nM
same,Percent inhibition compared to vehicle,"[3]; Agonist Mode, −E2",60%
same,Efficacy (Emax),"[3]; Agonist Mode, −E2",1.70 ± 0.30
same,Percent inhibition compared to vehicle,"[3]; Antagonist Mode, +E2",76%
same,Efficacy (Emax),"[3]; Antagonist Mode, +E2",1.70 ± 0.32
same,EC50,"[4]; Agonist Mode, −E2",0.257 ± 0.09 nM
same,EC50,"[4]; Antagonist Mode, +E2",2.3 ± 1.81 nM
same,Percent inhibition compared to vehicle,"[4]; Agonist Mode, −E2",55%
same,Efficacy (Emax),"[4]; Agonist Mode, −E2",1.71 ± 0.22
same,Percent inhibition compared to vehicle,"[4]; Antagonist Mode, +E2",71%
same,Efficacy (Emax),"[4]; Antagonist Mode, +E2",1.71 ± 0.16
same,Efficacy (Emax),"[5]; Agonist Mode, −E2",0.52 ± 0.09
same,Percent inhibition compared to vehicle,[5]; [10],90%
same,Efficacy (Emax),"[5]; Antagonist Mode, +E2",0.56 ± 0.02
same,EC50,"[5]; Agonist Mode, −E2",9.26 ± 2.39 nM
same,EC50,"[5]; Antagonist Mode, +E2",12.4 ± 3.52 nM
same,EC50,[5]; [9],9.26 ± 2.39 nM
same,Percent inhibition compared to vehicle,"[6]; Agonist Mode, −E2",62%
same,Efficacy (Emax),"[6]; Agonist Mode, −E2",2.50 ± 0.03
same,Percent inhibition compared to vehicle,"[6]; Antagonist Mode, +E2",65%
same,Efficacy (Emax),"[6]; Antagonist Mode, +E2",2.21 ± 0.12
same,EC50,"[6]; Agonist Mode, −E2",4.36 ± 3.23 nM
same,EC50,"[6]; Antagonist Mode, +E2",10.3 ± 2.62 nM
same,EC50,[6]; [9],4.36 ± 3.23 nM
same,EC50,"[7]; Agonist Mode, −E2",0.08 ± 0.042 nM
same,EC50,"[7]; Antagonist Mode, +E2",0.516 ± 0.479 nM
same,Percent inhibition compared to vehicle,"[7]; Agonist Mode, −E2",37%
same,Efficacy (Emax),"[7]; Agonist Mode, −E2",1.17 ± 0.13
same,Percent inhibition compared to vehicle,"[7]; Antagonist Mode, +E2",75%
same,Efficacy (Emax),"[7]; Antagonist Mode, +E2",1.23 ± 0.09
same,EC50,"[8]; Agonist Mode, −E2",0.05 ± 0.017 nM
same,EC50,"[8]; Antagonist Mode, +E2",0.327 ± 0.324 nM
same,Percent inhibition compared to vehicle,"[8]; Agonist Mode, −E2, 5-Day Incubation",28%
same,Efficacy (Emax),"[8]; Agonist Mode, −E2, Day 5 relative to Day 0",1.27 ± 0.24
same,Percent inhibition compared to vehicle,[8]; [10],64%
same,Efficacy (Emax),"[8]; Antagonist Mode, +E2, Day 5 relative to Day 0",1.15 ± 0.01

# Reference: patent US9855270B2, “Methods and compositions for modulating estrogen receptor mutants” (priority 2014, dated 2018)
